Here are results for 56 compounds from patent US8999956B2, “N-[(het)arylalkyl)] pyrazole(thio)carboxamides and their heterosubstituted analogues” (Bayer Intellectual Property GmbH, priority 2010, dated 2015).

One data set can be described thus: log P by HPLC on reversed-phase column (EEC Directive 79/831 Annex V.A8).
Conditions: not given
Format: physicochemical. The procedure: In table 1, the log P values were determined in accordance with EEC Directive 79/831 Annex V.A8 by HPLC (High Performance Liquid Chromatography) on a reversed-phase column (C18), using the method described below: Temperature: 40° C.; […]
Consider `CCCN(CCOc1ccc(Cl)cc1)C(=O)c1c(C(F)F)nn(C)c1F` [Example 57], for which the logP – broadly, the decadic logarithm of the partition coefficient of the neutral form, usually between octanol and water – is listed as 3.53.

Turning to `Cn1nc(C(F)F)c(C(=O)NCCS(=O)(=O)c2ccc(Cl)cc2)c1F` [Example 58], the logP was determined as 2.10. The same measure, in the same setting: for `Cn1nc(C(F)F)c(C(=O)NCCS(=O)(=O)c2ccc(Cl)cc2)c1Cl` [Example 59] the value was 2.30.

With `Cn1nc(C(F)F)c(C(=O)NC(CCc2ccc(Cl)cc2)C(C)(C)C)c1F` (centres unmarked) [Example 60], the logP worked out at 4.24. Still for that read-out and setting: for `Cn1nc(C(F)F)c(C(=O)NC(CCc2ccc(Cl)cc2)C(C)(C)C)c1Cl` (centres unmarked) [Example 61] the value was 4.41; for `Cc1cc(C)nc(CCC(C)NC(=O)c2c(C(F)F)nn(C)c2Cl)c1` (centres unmarked) [Example 64], 1.81; for `CCCN(CCOc1ccc(C(=O)OCC)cc1)C(=O)c1c(C(F)F)nn(C)c1Cl` [Example 72], 3.44. In turn, `CCCN(CCOc1ccc(C(=O)OCC)cc1)C(=O)c1c(C(F)F)nn(C)c1F` [Example 73] displayed a logP of 3.31. On the same count and under the same terms, for `Cn1nc(C(F)F)c(C(=O)NCCOc2cccc(Oc3ccccc3)c2)c1Cl` [Example 75] the value was 3.60; for `CC(CCc1ncc(C(F)(F)F)cc1Cl)N(C(=O)c1c(C(F)F)nn(C)c1Cl)C1CC1` (centres unmarked) [Example 85], 4.11; for `CC(CCc1ncc(C(F)(F)F)cc1Cl)N(C(=O)c1c(C(F)F)nn(C)c1F)C1CC1` (centres unmarked) [Example 86], 3.92. On the same count and under the same terms, for `CC(CCc1ncc(C(F)(F)F)cc1Cl)N(C)C(=O)c1c(C(F)F)nn(C)c1F` (centres unmarked) [Example 87] the value was 3.29. `CC(CCc1ncc(C(F)(F)F)cc1Cl)N(C)C(=O)c1c(C(F)F)nn(C)c1Cl` (centres unmarked) [Example 88] had a logP of 3.45. On the same count and under the same terms, for `CCC(CCc1sccc1Br)NC(=O)c1c(C(F)F)nn(C)c1Cl` (centres unmarked) [Example 90] the value was 3.63. Still for that read-out and setting: for `Cn1nc(C(F)F)c(C(=O)N(CCCc2cc3ccccc3o2)C2CC2)c1F` [Example 91] the value was 3.52; for `Cn1nc(C(F)F)c(C(=O)NCCCc2cc3ccccc3o2)c1F` [Example 92], 2.90.

On to `CN(CCCc1cc2ccccc2o1)C(=O)c1c(C(F)F)nn(C)c1F` [Example 93], for which the logP was found to be 3.00. With `Cn1nc(C(F)F)c(C(=O)N(CCCc2cc3ccccc3s2)C2CC2)c1F` [Example 94], the logP was 3.79. The same measure, in the same setting: for `Cn1nc(C(F)F)c(C(=O)NCCCc2cc3ccccc3s2)c1F` [Example 95] the value was 3.17. As for `CN(CCCc1cc2ccccc2s1)C(=O)c1c(C(F)F)nn(C)c1F` [Example 96], the logP was found to be 3.25.

Turning to `Cn1nc(C(F)F)c(C(=O)NCCCC2Cc3ccccc3O2)c1F` (centres unmarked) [Example 97], the logP is given as 2.69. Same read-out and setting: for `Cn1nc(C(F)F)c(C(=O)N(CCCC2CC=CO2)C2CC2)c1F` (centres unmarked) [Example 98] the value was 1.45; for `Cn1nc(C(F)F)c(C(=O)N(CCCc2ccco2)C2CC2)c1F` [Example 99], 2.75; for `Cn1nc(C(F)F)c(C(=O)NCCCc2ccco2)c1F` [Example 100], 2.17. The same measure, in the same setting: for `CN(CCCc1ccco1)C(=O)c1c(C(F)F)nn(C)c1F` [Example 101] the value was 2.25.

Take `Cn1nc(C(F)F)c(C(=O)N(CCCc2cccs2)C2CC2)c1F` [Example 102]: the logP is on record as 3.04. Same read-out and setting: for `CC(CCc1cccs1)N(C(=O)c1c(C(F)F)nn(C)c1Cl)C1CC1` (centres unmarked) [Example 103] the value was 3.57. As to `CN(CCCc1cccs1)C(=O)c1c(C(F)F)nn(C)c1F` [Example 104], the logP was 2.52. The compound `Cc1ccsc1CCCN(C(=O)c1c(C(F)F)nn(C)c1F)C1CC1` [Example 105] registered a logP of 3.33. Still for that read-out and setting: for `Cc1ccc2sc(CCCN(C(=O)c3c(C(F)F)nn(C)c3F)C3CC3)cc2c1` [Example 106] the value was 4.21; for `Cc1ccc(C(C)CCN(C(=O)c2c(C(F)F)nn(C)c2F)C2CC2)o1` (centres unmarked) [Example 107], 3.41. In turn, `Cc1ccc(C(C)CCN(C(=O)c2c(C(F)F)nn(C)c2Cl)C2CC2)o1` (centres unmarked) [Example 108] came in with a logP of 3.56.

For `Cc1ccc(C(C)CCN(C)C(=O)c2c(C(F)F)nn(C)c2F)o1` (centres unmarked) [Example 109], the logP is listed as 2.88. On the same count and under the same terms, for `Cc1ccc(C(C)CCN(C)C(=O)c2c(C(F)F)nn(C)c2Cl)o1` (centres unmarked) [Example 110] the value was 3.02; for `CON(CCC(C)c1ccc(C)o1)C(=O)c1c(C(F)F)nn(C)c1Cl` (centres unmarked) [Example 111], 3.29; for `CON(CCC(C)c1ccc(C)o1)C(=O)c1c(C(F)F)nn(C)c1F` (centres unmarked) [Example 112], 3.23.

For `Cc1ccc(CCCN(C(=O)c2c(C(F)F)nn(C)c2F)C2CC2)s1` [Example 113], the logP is listed as 3.44. Still for that read-out and setting: for `Cn1nc(C(F)F)c(C(=O)N(CCCC2CCCO2)C2CC2)c1F` (centres unmarked) [Example 114] the value was 2.21; for `Cn1nc(C(F)F)c(C(=O)NCCOc2cc(Cl)cc(Cl)c2)c1Cl` [Example 118], 3.55; for `Cn1nc(C(F)F)c(C(=O)NC(C)(C)CCc2ccc(Cl)c(Cl)c2)c1Cl` [Example 133], 4.44. Still for that read-out and setting: for `Cc1cccc(C)c1OCCNC(=O)c1c(C(F)F)nn(C)c1Cl` [Example 152] the value was 3.13. Still for that read-out and setting: for `Cn1nc(C(F)F)c(C(=O)NCCOc2c(F)cccc2F)c1Cl` [Example 160] the value was 2.64; for `CC(CCc1ccc(Cl)cc1Cl)NC(=O)c1c(C(F)F)nn(C)c1F` (centres unmarked) [Example 186], 3.79. Regarding `Cn1nc(C(F)F)c(C(=O)NCC(=O)Nc2c(Cl)cc(Cl)cc2Cl)c1F` [Example 197], the logP is on record as 2.39. Take `Cn1nc(C(F)F)c(C(=O)NCC(=O)Nc2c(Cl)cc(Cl)cc2Cl)c1Cl` [Example 198]: the logP is reported as 2.56. For `CCCN(CC(=O)Nc1c(Cl)cc(Cl)cc1Cl)C(=O)c1c(C(F)F)nn(C)c1Cl` [Example 199], the logP is 3.11. In turn, `CCCN(CC(=O)Nc1c(Cl)cc(Cl)cc1Cl)C(=O)c1c(C(F)F)nn(C)c1F` [Example 200] gave a logP of 2.96.

`Cn1nc(C(F)F)c(C(=O)NCCOc2c(Cl)cc(Cl)cc2Cl)c1Cl` [Example 201] yielded a logP of 3.80. Still for that read-out and setting: for `CC(C)N(CCOc1c(Cl)cc(Cl)cc1Cl)C(=O)c1c(C(F)F)nn(C)c1F` [Example 203] the value was 4.51; for `CCCN(CCOc1c(Cl)cc(Cl)cc1Cl)C(=O)c1c(C(F)F)nn(C)c1F` [Example 204], 4.37.

On to `CCCN(CCOc1c(Cl)cc(Cl)cc1Cl)C(=O)c1c(C(F)F)nn(C)c1Cl` [Example 205], for which the logP was 4.56. The compound `Cn1nc(C(F)F)c(C(=O)N(CCOc2c(Cl)cc(Cl)cc2Cl)C2CCCC2)c1Cl` [Example 206] showed a logP of 5.27.

Take `Cn1nc(C(F)F)c(C(=O)N(CCOc2c(Cl)cc(Cl)cc2Cl)C2COC2)c1Cl` [Example 207]: the logP was 3.55. The same measure, in the same setting: for `CC(C)N(CCOc1c(Cl)cc(Cl)cc1Cl)C(=O)c1c(C(F)F)nn(C)c1Cl` [Example 208] the value was 4.71; for `Cn1nc(C(F)F)c(C(=O)N(CCOc2c(Cl)cc(Cl)cc2Cl)C2CCCC2)c1F` [Example 209], 5.08.

The data set is the same for the next values; noted with them: HPLC on reversed-phase column (C18), 40° C., 0.1% aqueous formic acid and acetonitrile, linear gradient 10% to 90% acetonitrile.
`CC1CCCC(Cc2cccc(Cl)c2)C1NC(=O)c1c(C(F)F)nn(C)c1Cl` (centres unmarked) [Example 80] displayed a logP of 4.51.
